Results from patent US9475789B2, “Use of polyenylpyrrole derivatives for treating inflammation” (WELLHEAD BIOLOGICAL TECHNOLOGY CORP., priority 2014, dated 2016).

Columns and labels:
COX-2 = experiment: Western blot of COX-2 protein in LPS-activated RAW 264.7 macrophages; type: cell-based, murine
Experimental: In (A) and (C), cells (5×10^5/ml) were incubated with polyenylpyrrole derivatives or DMSO (vehicle) for 30 min followed by stimulating with LPS (1 μg/ml) for 24 h, then NO (A), IL-6 and TNF-α (C) concentration in culture medium were assayed by Griess reaction and ELISA, respectively. In (B), cells (5×10^5/ml) were pretreated with polyenylpyrrole derivatives or DMSO for 30 min followed by stimulating with LPS (1 μg/ml) for 24 h, then the protein expression of iNOS and COX-2 were assayed by Western blot.
(§1) Whole cell lysates were separated by SDS-PAGE and electrotransferred to a PVDF membrane. The membranes were incubated in blocking solution—5% nonfat milk in phosphate buffered saline with 0.1% Tween 20—at room temperature for 1 h. Each membrane was incubated with a specific primary antibody at room temperature for 2 h. After washing three times in PBS with 0.1% Tween 20, the membrane was incubated with an HRP-conjugated secondary antibody directed against the primary antibody. The membrane was developed by an enhanced chemiluminescence Western blot detection system.

TNF-α = TNF-α ELISA, LPS-activated JAWSII dendritic cells; type: cell-based, murine; conditions: LPS 1 μg/ml 24 h
Experimental: (A) J774A.1 macrophages (4×10^5/ml), (B) peritoneal macrophages (4×10^5/ml), and (C) JAWSII dendritic cells (4×10^5/ml) were incubated with compound 1h or DMSO for 30 min followed by stimulating with LPS (1 μg/ml) for 24 h, then IL-6 and TNF-α concentration in culture medium were assayed by ELISA. The data are expressed as the mean±SD for three separate experiments. *, **, and *** indicate a significant difference at the level of p<0.05, p<0.01, p<0.001 respectively compared to LPS group.
The effects of tested samples on IL-1β, TNF-α and IL-6 production were measured by ELISA according to the manufacturer's instruction. In brief, 50 μl of biotinylated antibody reagent and 50 μl of supernatant were added to an anti-mouse IL-1β, TNF-α and IL-6 precoated stripwell plate, and incubated at room temperature for 2 h. After washing the plate three times with washing buffer, 100 μl of diluted streptavidin-HRP concentrate was added to each well and incubated at room temperature for 30 min. The washing process was repeated; then 100 μl of a premixed tetramethylbenzidine substrate solution was added to each well and developed at room temperature in the dark for 30 min. Following the addition of 100 μl of stop solution to each well to stop the reaction, the absorbance of the plate was measured by a microplate reader at 450 nm wavelength.

NLRP3 = experiment: Western blot of NLRP3, LPS-activated J774A.1 macrophages; type: cell-based, mouse; conditions: compound 30 min, then LPS 6 h
Experimental: (A) J774A.1 macrophages (1×10^6/ml) and (B) peritoneal macrophages (1×10^5/ml) were incubated with compound 1h for 30 min followed by LPS (1 μg/ml) stimulating for 5.5 h, then the cells were stimulated with ATP (5 mM) for an additional 30 min. The IL-1β in the culture medium was measured by ELISA and the expression of active caspase-1 (p10) was measured by Western blot. In (C) and (D), J774A.1 macrophages (1×10^6/ml) were incubated with LPS (1 μg/ml) for 5.5 h, then cells were incubated with compound 1h for 30 min followed by stimulating with ATP (5 mM) for an additional 30 min. The IL-1β and IL-6 in the culture medium were measured by ELISA and the expression of active caspase-1 (p10) was measured by Western blot. In (E), J774A.1 macrophages (1×10^6/ml) were incubated with compound 1h for 30 min followed by LPS (1 μg/ml) stimulating for 6 h. The expression of NLRP3 and proIL-1β were measured by Western blot.
as §1, with “The membrane was developed by an enhanced chemiluminescence Western blot detection system.” left out

ROS = experiment: Intracellular ROS production, LPS-activated RAW 264.7 macrophages; type: cell-based, murine; conditions: compound 1h 20 μM, NAC 10 mM, 30 min before LPS
Experimental: In (A), RAW 264.7 macrophages (5×10^5/ml) were incubated with compound 1h (20 μM), N-acetyl cysteine (NAC; 10 mM) or DMSO (vehicle) for 30 min followed by LPS (1 μg/ml) stimulating for the indicated time, then ROS levels were measured by detection of the fluorescence intensity of the fluorophore carboxyl-DCF and expressed relative to those at time zero. In (B), RAW 264.7 macrophages (5×10^5/ml) were incubated with compound 1h (20 μM) or DMSO for 30 min followed by LPS (1 μg/ml) stimulating for 0-60 min, then the phosphorylation levels of ERK1/2, JNK1/2, p38 were analyzed by Western blot. In (C), J774A.1 macrophages (5×10^5/ml) were incubated with compound 1h or DMSO for 30 min followed by LPS (1 μg/ml) stimulating for 20 min, then the phosphorylation levels of ERK1/2, JNK1/2, p38 were analyzed by Western blot.
Intracellular ROS stimulated by LPS was measured by detecting the fluorescence intensity of the 2′,7′-dichlorofluorescein diacetate (H2DCFDA) oxidized product (DCF) (Molecular Probes, Eugene, Oreg.). […] The relative fluorescence intensity of fluorophore DCF, formed by peroxide oxidation of the non-fluorescent precursor, was detected at an excitation wavelength of 485 nm and an emission wavelength of 530 nm with a microplate absorbance reader (Bio-Rad Laboratories, Inc).

In the case of `O=c1cc(O)cc(/C=C/C=C/C=C/C=C/c2[nH]ccc2Cl)o1` [Compound 1h], the COX-2 expression (COX-2) is reported as “did not affect”, the “secretion of TNF-α” value (TNF-α) is reported as “also reduced” and the NLRP3 expression (NLRP3) is reported as “increased NLRP3 expression”. For the same compound, the “LPS-stimulated ROS production” value (ROS) was “able to reduce LPS-stimulated ROS production”.
